Test results reported in patent US20130012451A1, “COMPOSITIONS AND METHODS FOR INHIBITING MMP-9-MEDIATED CELL MIGRATION” (The Research Foundation of State University of New York, priority 2009, published 2013).
Entries after “also recorded” stand apart in the source; their conditions may differ. Like-named read-outs stand apart in the source and are kept apart here. Blank lines part the entries; values can stand above or below the substance they belong to. Where no end group is shown, it is not given here.

Tests used:
[1] = target: T1, CD44/MMP-9 heterodimer (Homo sapiens, UniProt P16070); experiment: Co-immunoprecipitation assay of CD44/MMP-9 complex formation in transfected COS-1 cells; type: cell-based; conditions: COS-1 cells transfected with CD44 and MMP-9 cDNAs, peptides for 30 minutes
T1 construct: The MMP-9 cDNA containing the open reading frame of MMP-9 was amplified by a PCR approach; expressed in transfected cells; host or cells: COS-1 monkey kidney epithelial cells
T1 sequence (P16070 21-742, one chain of several): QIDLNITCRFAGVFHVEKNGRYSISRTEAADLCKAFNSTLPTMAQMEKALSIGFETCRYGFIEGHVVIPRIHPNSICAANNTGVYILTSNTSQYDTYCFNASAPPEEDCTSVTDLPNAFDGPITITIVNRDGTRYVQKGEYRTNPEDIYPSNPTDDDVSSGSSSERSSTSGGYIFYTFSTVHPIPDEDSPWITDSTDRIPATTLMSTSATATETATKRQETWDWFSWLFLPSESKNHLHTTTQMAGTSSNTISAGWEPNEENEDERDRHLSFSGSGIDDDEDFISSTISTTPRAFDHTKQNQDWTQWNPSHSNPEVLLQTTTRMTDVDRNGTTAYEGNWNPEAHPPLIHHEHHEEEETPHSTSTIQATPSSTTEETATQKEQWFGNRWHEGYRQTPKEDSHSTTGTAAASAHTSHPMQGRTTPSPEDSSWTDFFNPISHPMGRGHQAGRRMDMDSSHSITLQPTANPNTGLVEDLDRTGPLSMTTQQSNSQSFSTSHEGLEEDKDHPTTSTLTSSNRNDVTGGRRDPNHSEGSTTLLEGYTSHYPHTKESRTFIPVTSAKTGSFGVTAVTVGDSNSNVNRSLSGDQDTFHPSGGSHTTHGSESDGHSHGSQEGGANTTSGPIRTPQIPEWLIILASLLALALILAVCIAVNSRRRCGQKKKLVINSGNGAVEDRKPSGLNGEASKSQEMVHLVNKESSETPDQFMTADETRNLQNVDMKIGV
Source text: (§1) Procedures for Gelatin Substrate Zymography, Immunoblotting, Immunoprecipitation, Transwell Chamber Cell Migration and Phagokinetic Cell Migration Assays
(§2) Basic protocols for these techniques have been described previously (Cao et al., 1996; Dufour et al., 2008).
To further examine the importance of cross-talk between CD44 and MMP-9 in cell migration, an 8-amino acids peptide (SRPQGPFL) (SEQ ID NO: 2) was synthesized to mimic the outermost β-strand of the first blade of the MMP-9 PEX domain (IS4 peptide). As a control, a scrambled peptide with the same amino acids but rearranged in different order (GLSQPRFP) (SEQ ID NO: 35) was synthesized. COS-1 cells transfected with CD44 and MMP-9 cDNAs were treated with IS4 and IS4 scrambled peptides for 30 minutes followed by monitoring complex formations between CD44 and MMP-9 using a co-immunoprecipitation assay.

[2] = system: HT1080 cells; experiment: Transwell chamber migration assay, HT1080 cells expressing endogenous MMP-9; type: cell-based, human; conditions: 100 μM peptide, 6 h at 37° C.
Description: Human fibrosarcoma HT1080 cells are highly invasive and metastatic. […] Since this cell line produces endogenous MMP-9, the inventors sought to test if the MMP-9 IS4 and IVS4 peptides can be used to interfere with function of endogenous MMP-9. To this end, HT1080 cells were employed and cell migratory ability was evaluated using a Transwell chamber migration assay (FIG. 11). The cells were incubated with 100 μM of IS4 peptide (SRPQGPFL) (SEQ ID NO: 2), IS4 scrambled peptide (GLSQPRFP) (SEQ ID NO: 35), IVS4 peptide (NQVDQVGY) (SEQ ID NO: 1), IVS4 scrambled peptide (VQYDNGQV) (SEQ ID NO: 51), and a combination of IS4 and IVS4 peptides for 6 h at 37° C. 1% DMSO was used as a vehicle control. Migrated cells were microscopically counted. Each data point was performed in triplicate and the experiment was repeated three times (*P<0.05). […] While not limiting the invention to any particular mechanism, it is the inventors' view that this is potentially because both inhibitory peptides target the same molecule.

[3] = system: MMP-9-induced cell migration of transfected COS-1 cells; conditions: for MMP-9-induced cell migration: transwell chamber migration assay for 6 hours, MMP-9 transfected COS-1 cells
Description: (P-values reflect comparison with MMP-9 transfected cells: *P<0.05). […] COS-1 cells transfected with an empty vector or MMP-9 cDNAs were examined by a transwell chamber migration assay for 6 hours in the presence of DMSO control, specific and scramble peptides at different concentration. Each data point was performed in triplicate and the experiments was repeated three times (*P<0.05).
Transfection of plasmid DNA in COS-1 cells was achieved using polyethylenimine (Polysciences) or Transfectin™ reagents (Bio-Rad) and the transfected cells were incubated for 48 h at 37° C. followed by biochemical and biological assays.

[4] = system: cell migration induced by MT1-MMP; experiment: Transwell migration assay, cell migration induced by MT1-MMP; type: cell-based
Source text: (§3) One approach to blunt MMP-9 induced cell migration might be to target the herein discovered homodimer formation, which is a prerequisite for MMP-9-induced cell migration. Given the observation that the outermost β-strand of the fourth blade of the MMP-9 PEX domain is required for MMP-9 homodimerization formation, an 8-amino acids peptide (NQVDQVGY) (SEQ ID NO: 1) was synthesized to mimic the outer β-strand of blade IV of MMP-9 PEX domain (IVS4 peptide). As a control, a scrambled peptide with the same amino acids but rearranged in different order (VQYDNGQV) (SEQ ID NO: 51) was designed and synthesized. To test if IVS4 peptide blocked MMP-9 homodimer formation, COS-1 cells transfected with MMP-9 cDNA were treated with peptides for 30 minutes followed by a co-immunoprecipitation assay. […] To examine the potential therapeutic effect of this peptide, a transwell migration assay was performed. […] This IVS4 peptide, however, had no effect on cell migration induced by MT1-MMP, an integral membrane matrix metalloproteinase capable of stimulating cell migration (Cao et al., 2004).

[5] = target: T2, MMP-9 homodimer (Homo sapiens, UniProt P14780); experiment: Co-immunoprecipitation assay of MMP-9 homodimer formation in transfected COS-1 cells; type: cell-based
T2 construct: The MMP-9 cDNA containing the open reading frame of MMP-9 was amplified by a PCR approach; by a site-directed mutagenesis approach using wild type MMP-9 as a template; expressed in transfected cells; host or cells: COS-1 monkey kidney epithelial cells
T2 sequence (P14780 20-707 limits assumed): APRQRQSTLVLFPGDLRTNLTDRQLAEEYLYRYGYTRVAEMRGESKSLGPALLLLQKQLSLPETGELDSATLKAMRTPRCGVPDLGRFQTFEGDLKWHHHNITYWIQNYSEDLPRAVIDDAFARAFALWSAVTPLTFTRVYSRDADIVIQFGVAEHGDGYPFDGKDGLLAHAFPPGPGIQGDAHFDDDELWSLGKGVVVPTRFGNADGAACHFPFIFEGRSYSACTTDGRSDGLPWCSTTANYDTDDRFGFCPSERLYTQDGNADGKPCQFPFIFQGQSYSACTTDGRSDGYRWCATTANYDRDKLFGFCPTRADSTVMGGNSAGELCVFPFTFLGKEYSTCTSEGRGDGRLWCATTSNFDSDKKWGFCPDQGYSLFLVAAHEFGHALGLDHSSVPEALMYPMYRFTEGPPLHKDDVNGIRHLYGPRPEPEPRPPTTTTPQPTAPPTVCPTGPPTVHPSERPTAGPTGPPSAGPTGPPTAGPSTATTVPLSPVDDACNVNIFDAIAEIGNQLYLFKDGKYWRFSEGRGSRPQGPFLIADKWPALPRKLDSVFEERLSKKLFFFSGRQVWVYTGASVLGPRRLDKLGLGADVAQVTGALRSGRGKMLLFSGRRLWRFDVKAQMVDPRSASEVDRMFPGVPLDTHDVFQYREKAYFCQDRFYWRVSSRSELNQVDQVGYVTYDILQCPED
Source text: as §1, §2
COS-1 cells co-transfected with HA- and Myc-tagged MMP-9 cDNAs were then employed to examine homodimer formation using a co-immunoprecipitation approach. The HA-tagged MMP-9 proteins in the conditioned medium of transfected COS-1 cells were immunoprecipitated with anti-HA antibodies followed by a western blotting probed by anti-Myc antibodies. […] To further confirm this observation, the reciprocal co-immunoprecipitation was performed. Anti-Myc antibodies were employed to precipitate Myc-tagged MMP-9 complexes in the conditioned medium of co-transfected COS-1 cells followed by western blotting using anti-HA antibodies. This reciprocal approach confirms that MMP-9 does form a homodimer in the condition medium of transfected COS-1 cells.
as §3

[6] = system: MMP9/PEXMMP-2/Myc transfected COS-1 cells; experiment: Transwell migration assay, COS-1 cells transfected with MMP9/PEXMMP-2/Myc; type: cell-based, monkey; conditions: co-expression of TIMP
Source text: FIG. 3. TIMP-1 interferes with MMP-9 homodimerization. (A) TIMP-1, but not TIMP-2 interferes with MMP-9 dimerization in transfected COS-1 cells examined by a co-immunoprecipitation assay for conditioned medium and cell lysates (upper and middle panels), and immunoblotting for α/β tubulin (lower panel, loading control). (B) TIMP-1 co-precipitated with MMP-9 in both the lysate and the conditioned medium of transfected COS-1 cells examined by a co-immunoprecipitation assay. (C) MMP-9 chimera substituting the PEX domain with the corresponding MMP-2 interacts with TIMP-2 in transfected COS-1 cells, but not wild type MMP-9. (D) COS-1 cells transfected with corresponding cDNAs were subjected to a transwell migration assay. Three triplicated repeats were performed for each transfection. *P<0.05.
The role of TIMP-1 in interfering with MMP-9 homodimer formation remains controversial (Goldberg et al., 1992; Olson et al., 2000). This discrepancy led us to reevaluate the specific interference of TIMP-1 on proMMP-9 homodimer formation using the biochemical approach described above. […]

CD44/MMP-9 heterodimer formation [1]: minimal effect
Substance: GLSQPRFP [IS4 scrambled peptide, control scrambled peptide with the same amino acids as IS4 rearranged in different order, reference compound]

MMP-9 homodimer formation ([5]; COS-1 cells transfected with MMP-9 cDNA, treated with peptides for 30 minutes, co-immunoprecipitation): efficiently blocked | MMP-9 homodimer formation ([5]; COS-1 cells transfected with MMP-9 cDNA, treated with peptides for 30 minutes, co-immunoprecipitation, listed as IVS4): abrogates
Substance: NQVDQVGY [IVS4 peptide, NQVDQVGY]
HT1080 cell migration [2]: significantly reduced; also recorded: efficiently reduced | IC50 [3]: 50 µM | MMP-9-induced cell migration [3]: inhibited MMP-9-induced cell migration in a dose-dependent manner | MMP-9-induced cell migration ([3]; listed as IVS4): efficiently reduced | MMP-9-induced cell migration ([3]; listed as IVS4 peptides): Dose dependent inhibition | cell migration induced by MT1-MMP [4]: no effect

CD44/MMP-9 heterodimer formation [1]: interferes
Substance: SRPQGPFL [IS4 peptide, SRPQGPFL]
HT1080 cell migration ([2]; listed as IS4): significantly reduced; also recorded: efficiently reduced | IC50 [3]: 12 µM | MMP-9-induced cell migration [3]: dose-dependent inhibition | MMP-9-induced cell migration ([3]; listed as IS4): efficiently reduced | MMP-9-induced cell migration ([3]; listed as IS4 peptides): Dose-dependent inhibition

MMP-9 homodimer formation ([5]; co-expression of TIMP cDNA with proMMP-9/Myc and proMMP-9/HA cDNAs in COS-1 cells, conditioned media and cell lysate): interferes; also recorded: blocking
Substance: TIMP-1: tissue inhibitor of metalloproteinases, co-expressed from cDNA in COS-1 cells
MMP9/PEXMMP-2/Myc enhancement of COS-1 cell migration [6]: no apparent effect; also recorded: did not significantly inhibit
